Assay results from ChEMBL document CHEMBL1159305, “Vidalenolone, a novel phenolic metabolite from the tropical red alga Vidalia sp” (J Nat Prod, 2002).
Activity calls are given as the source filed them.

Tests used:
[1] = molecular target: Tyrosine-protein kinase Fyn (Homo sapiens) (UniProt P06241); assay: Inhibition of GST-tagged human recombinant full length Fyn SH2 domain expressed in Escherichia coli […] binding to biotinylated phosphotyrosine-containing peptide by ELISA
[2] = molecular target: Tyrosine-protein kinase ABL1 (Homo sapiens) (UniProt P00519); assay: Inhibition of GST-tagged human recombinant full length Abl SH2 domain expressed in Escherichia coli […] binding to biotinylated phosphotyrosine-containing peptide by ELISA
Tyrosine-protein kinase ABL1 (Homo sapiens), sequence (P00519 whole entry, the tested form may be a part): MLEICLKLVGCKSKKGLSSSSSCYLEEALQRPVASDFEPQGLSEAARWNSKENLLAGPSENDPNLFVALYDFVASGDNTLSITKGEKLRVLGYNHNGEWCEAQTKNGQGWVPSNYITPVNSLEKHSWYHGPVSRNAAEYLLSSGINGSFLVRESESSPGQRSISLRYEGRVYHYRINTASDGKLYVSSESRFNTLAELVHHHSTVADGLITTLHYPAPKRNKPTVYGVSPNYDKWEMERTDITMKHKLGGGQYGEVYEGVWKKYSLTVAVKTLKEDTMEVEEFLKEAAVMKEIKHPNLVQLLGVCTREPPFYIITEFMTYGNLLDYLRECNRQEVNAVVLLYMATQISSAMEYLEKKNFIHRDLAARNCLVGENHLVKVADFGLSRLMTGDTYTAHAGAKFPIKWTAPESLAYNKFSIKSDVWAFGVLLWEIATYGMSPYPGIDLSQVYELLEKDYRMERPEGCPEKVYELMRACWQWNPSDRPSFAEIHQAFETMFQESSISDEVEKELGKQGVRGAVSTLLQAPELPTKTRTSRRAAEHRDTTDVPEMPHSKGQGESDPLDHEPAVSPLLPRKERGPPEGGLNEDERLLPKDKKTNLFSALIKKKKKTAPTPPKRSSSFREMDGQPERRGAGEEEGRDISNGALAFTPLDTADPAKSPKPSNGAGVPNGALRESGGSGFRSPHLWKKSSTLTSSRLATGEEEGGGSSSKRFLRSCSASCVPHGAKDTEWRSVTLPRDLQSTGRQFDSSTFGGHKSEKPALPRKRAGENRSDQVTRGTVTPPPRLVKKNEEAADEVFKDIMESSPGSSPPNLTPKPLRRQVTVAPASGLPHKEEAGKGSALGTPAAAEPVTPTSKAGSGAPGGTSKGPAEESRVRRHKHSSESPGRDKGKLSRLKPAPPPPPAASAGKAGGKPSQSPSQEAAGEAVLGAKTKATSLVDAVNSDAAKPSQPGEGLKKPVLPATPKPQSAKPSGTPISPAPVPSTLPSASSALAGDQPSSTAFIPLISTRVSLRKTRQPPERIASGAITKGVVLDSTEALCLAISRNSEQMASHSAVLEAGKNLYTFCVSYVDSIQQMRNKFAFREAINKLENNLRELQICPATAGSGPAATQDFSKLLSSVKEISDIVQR

[3] = molecular target: Adapter molecule crk (Homo sapiens) (UniProt P46108); assay: Inhibition of GST-tagged human recombinant full length Crk SH2 domain expressed in Escherichia coli […] binding to biotinylated phosphotyrosine-containing peptide by ELISA
Adapter molecule crk (Homo sapiens), sequence (P46108 whole entry, the tested form may be a part): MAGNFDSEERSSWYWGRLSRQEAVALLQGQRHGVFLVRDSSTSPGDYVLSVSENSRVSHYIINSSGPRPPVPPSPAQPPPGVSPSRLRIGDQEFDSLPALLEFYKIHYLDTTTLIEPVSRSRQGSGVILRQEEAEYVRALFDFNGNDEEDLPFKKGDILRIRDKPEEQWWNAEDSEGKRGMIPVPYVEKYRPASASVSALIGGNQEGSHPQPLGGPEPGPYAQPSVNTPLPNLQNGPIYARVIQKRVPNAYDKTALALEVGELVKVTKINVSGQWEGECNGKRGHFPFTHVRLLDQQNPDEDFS

[4] = molecular target: Growth factor receptor-bound protein 2 (Homo sapiens) (UniProt P62993); assay: Inhibition of GST-tagged human recombinant full length Grb2 SH2 domain expressed in Escherichia coli […] binding to biotinylated phosphotyrosine-containing peptide by ELISA
Growth factor receptor-bound protein 2 (Homo sapiens), sequence (P62993 whole entry, looked up, the tested form may be a part): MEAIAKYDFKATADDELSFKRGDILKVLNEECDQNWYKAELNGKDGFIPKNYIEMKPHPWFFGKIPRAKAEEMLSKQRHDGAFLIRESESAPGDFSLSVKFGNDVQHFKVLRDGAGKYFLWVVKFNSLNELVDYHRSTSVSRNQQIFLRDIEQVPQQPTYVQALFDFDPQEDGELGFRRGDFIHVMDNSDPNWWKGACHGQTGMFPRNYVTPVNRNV

Measured: Activity

Tyrosine-protein kinase Fyn (Homo sapiens), sequence (P06241 2-537 limits assumed): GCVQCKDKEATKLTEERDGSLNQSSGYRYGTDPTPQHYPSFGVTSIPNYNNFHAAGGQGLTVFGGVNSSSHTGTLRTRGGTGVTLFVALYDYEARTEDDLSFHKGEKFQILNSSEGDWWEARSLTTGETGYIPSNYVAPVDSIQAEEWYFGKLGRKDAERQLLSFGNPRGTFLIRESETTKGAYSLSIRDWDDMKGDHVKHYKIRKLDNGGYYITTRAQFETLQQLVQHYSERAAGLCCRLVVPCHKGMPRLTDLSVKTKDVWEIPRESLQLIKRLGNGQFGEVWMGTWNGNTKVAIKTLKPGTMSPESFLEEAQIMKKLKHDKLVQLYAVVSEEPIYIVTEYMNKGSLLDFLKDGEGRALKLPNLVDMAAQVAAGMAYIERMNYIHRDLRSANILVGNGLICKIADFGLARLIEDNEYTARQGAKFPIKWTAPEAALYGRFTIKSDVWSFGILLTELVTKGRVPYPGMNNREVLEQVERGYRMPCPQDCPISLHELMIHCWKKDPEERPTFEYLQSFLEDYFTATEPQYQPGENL

COC1(Cc2ccc(O)cc2)CC=C(O)C1=O (configuration not stated)
inactive: all assays above

CCOCc1cc(O)c(O)c(Br)c1Br
inactive: all assays above

OCc1ccc(O)cc1
inactive: all assays above
